Assay results reported in patent publication US20260226006A1, “INDOLE COMPOUND, PREPARATION METHOD THEREFOR AND USE THEREOF” (SUZHOU MERNA THERAPEUTICS CO. LTD, priority 2023, published 2026).

Legend:
[1] = system: HaCaT keratinocytes; test: Inhibition of HBEGF-induced differentiation of HaCaT keratinocytes, marker mRNA by RT-PCR (Example 21); type: cell-based, human; conditions: 2.5 ng/mL human recombinant HBEGF protein + test compound, 24 hours
Procedure: Human HaCaT keratinocytes were cultured in a DMEM culture medium containing 10% fetal bovine serum, 100 U/mL penicillin, and 100 µg/mL streptomycin. The cells were seeded into a 96-well plate at a density of […] and placed in an incubator containing 5% carbon dioxide for culture at 37° C. for 24 hours. An equal volume of DMSO was added into control well 1, a 2.5 ng/mL human recombinant HBEGF protein (Abcam, ab205523) was added into control well 2, and a 2.5 ng/mL human recombinant HBEGF protein and corresponding concentrations of test compounds were added into sample wells. The cells were continuously cultured for 24 hours, washed with PBS, and then collected by high-speed centrifugation. Total RNA was extracted using a Trizol reagent (Sigma Aldrich). 1 μg of RNA was reverse-transcribed into cDNA using a cDNA reverse transcription kit (Transgene Biotech, AT311-03). 1.25 μL of a primer (with a primer sequence shown in Table 2), 10 μL of an iTag Universal SYBR Green supermix (Bio-Rad, 172-S125), and an appropriate amount of DEPC ultrapure water were added to formulate 20 μL of a reaction solution to perform an RT-PCR reaction. Upon completion of the reaction, the reaction solution was subjected to agarose gel electrophoresis to determine the mRNA expression amounts of keratinocyte differentiation markers KRT1, KRT10, Loricrin, and Involucrin.

[2] = system: skin of hind limb toes of mice; test: Chemotherapeutic drug-induced mouse models with hand-foot syndrome (Example 23); type: in vivo, ICR mice; conditions: compound 2b 3% ointment topical or nicotinamide 100 mg/kg oral; for expression level of cytokine IL-8 in skin tissues of hind limb toes: capecitabine model; for thickening of the epidermal layer and the stratum corneum in the skin tissues (pathological staining) / swelling of the toes caused by the modeling drugs: capecitabine or docetaxel model; for swelling of the toes caused by the modeling drugs: once daily 16 days; for expression level of cytokine IL-6 in skin tissues of hind limb toes: docetaxel model
From the text: After adaptive feeding for 7 days, SPF-grade ICR mice (male, 5-6 weeks old, with a body weight of approximately 35 g) were randomly divided into groups, including a blank control group (6 mice), a capecitabine modeling group (6 mice), a docetaxel modeling group (6 mice), a capecitabine+compound 2b group (6 mice), a docetaxel+compound 2b group (6 mice), a capecitabine+nicotinamide group (6 mice), and a docetaxel+nicotinamide group (6 mice). The groups were respectively administered corresponding modeling drugs by oral gavage (capecitabine at 200 mg/kg and docetaxel at 25 mg/kg) once daily, and the blank control group was administered an equivalent volume of normal saline. After administration with the chemotherapeutic drugs for 2 weeks, the compound ointments (at a compound content of 3%) used in Example 22 were respectively applied topically in the groups, or nicotinamide was orally administered (100 mg/kg) once daily continuously for 16 days.
Measurement of the degree of swelling of toes: The degree of swelling of hind limb toes of the mice was measured using a toe swelling tester (KW-7C, Nanjing Calvin Biotechnology Co., Ltd.) before administration with the modeling drugs, after administration with the modeling drugs for 2 weeks, and before sacrifice, respectively. Before measurement, ankle joints of hind paws of the mice were marked at same positions before administration, after administration for 2 weeks, and before sacrifice. During measurement, water was properly located at the same level as the marked positions, and numerical values were recorded after becoming stable.
Pathological staining of skin tissues: Skin tissue samples were selected from hind limb toes of the mice and placed in 4% paraformaldehyde for fixation at room temperature for 4 hours. Then, the tissues were taken out and rinsed with running water for several hours. The samples were subjected to dehydration treatment with 70%, 80%, and 90% ethanol solutions, followed by treatment with a mixed solution of equal amounts of absolute alcohol and xylene for 15 minutes, and then permeabilized twice with a xylene solution for 15 minutes each time until the samples became transparent. The samples were placed in a mixture of half xylene and half paraffin for soaking for 15 minutes, and then, paraffin I and paraffin II were added for wax penetration for one hour, respectively. After embedding with paraffin, the samples were sectioned, baked, dewaxed, and hydrated. Then, the hydrated sections were placed in a hematoxylin solution (ZSGB-BIO, article No. 23041001) for staining for 3 minutes, and a differentiation solution of hydrochloric acid in ethanol was added for differentiation for 15 seconds. After rinsing with water, a Scott bluing solution (Servicebio, article No. 20230801) was added for bluing for 15 seconds. After rinsing with running water, the sections were stained with an eosin solution (Solarbio, article No. 33535) for 3 minutes, rinsed with running water, dehydrated, permeabilized, sealed, and inspected under a microscope.
Immunohistochemical staining: After baking, dewaxing, and hydration, paraffin sections of skin tissues of hind limb toes of the mice were subjected to antigen retrieval using a 0.2 M citric acid buffer solution (containing 1.534 g of citric acid, 3.1 g of sodium citrate, and 100 mL of distilled water, pH 4.7). Endogenous […] was removed using 3% hydrogen peroxide (Shandong Annjet High-Tech Disinfection Technology Co., Ltd., article No. 20290902), and the sections were incubated at room temperature for 10 minutes and then fully rinsed with a PBS buffer solution (containing 8 g of NaCl, 0.2 g of KCl, 1.44 g of Na2HPO4, and 1 M HCl, pH 7.4). The sections were permeabilized with 0.5% Triron-X-100 (AmyJet Scientific, article No. A-CSH436-100 mL), respectively permeabilized with mouse anti-IL-1β and rabbit IL-8 for 10 minutes, and not permeabilized with rabbit anti-IL-6. […]

Row | SMILES | mRNA expression amounts of HaCaT differentiation markers KRT1, KRT10, Loricrin, and Involucrin [1] | expression level of cytokine IL-8 in skin tissues of hind limb toes [2] | thickening of the epidermal layer and the stratum corneum in the skin tissues (pathological staining) [2] | swelling of the toes caused by the modeling drugs [2] | expression level of cytokine IL-6 in skin tissues of hind limb toes [2]
1 | NC(=O)C1CCCc2c1[nH]c1ccc(Cl)cc21 (stereo not drawn) [Compound 2, 6-chloro-2,3,4,9-tetrahydro-1H-carbazole-1-carboxamide] | significantly inhibited | – | – | – | –
2 | NC(=O)[C@H]1CCCc2c1[nH]c1ccc(Cl)cc21 [Compound 2b, (S)-6-chloro-2,3,4,9-tetrahydro-1H-carbazole-1-carboxamide] | significantly inhibited | significantly decrease | effectively alleviate | significantly alleviate | significantly decrease
3 | NC(=O)C1c2[nH]c3ccc(Cl)cc3c2C2CCC1C2 [Compound 5a, (S)-2-chloro-5,6,7,8,9,10-hexahydro-7,10-methanocyclohepta[b]indole-6-carboxamide] | significantly inhibited | – | – | – | –
4 | CN1CC[C@H](C(N)=O)c2[nH]c3ccc(Cl)cc3c21 [Compound 8b, (S)-8-chloro-1-methyl-2,3,4,5-tetrahydropyrido[3,2-b]indole-4-carboxamide] | significantly inhibited | – | – | – | –
5 | NC(=O)c1cccnc1 [Nicotinamide, nicotinamide] | – | does not have a significant impact | mildly alleviates | not observed that oral administration of the nicotinamide at 100 mg/kg significantly alleviates the swelling | does not have a significant impact
